According to PubChem BioAssay AID743357 (Broad Institute, 2014):
Activity calls are given as the source filed them. How the calls were made is not given here.

Target: BioA, adenosylmethionine-8-amino-7-oxononanoate aminotransferase (Mycobacterium tuberculosis)
Assay: BioA aminotransferase inhibition, biochemical, coupled fluorescence displacement, 20-point, dry powder, dose response (AID 743357)
Conditions: coupled fluorescence displacement assay
[1] = measured here: test 2 replicate AC50
[2] = measured here: test 1 replicate AC50

Compound | AC50 [nM] | activity change, negative = inhibition (at 10 µM (top of the series)) | other results
COCC(=O)N1CC[C@@H]2[C@@H](CO)N(C)c3ccc(-c4cccc(F)c4)cc3[C@@H]21 | 55.4 | – | AC50 [1]: 55.4 nM
COc1cccc(NC(=O)N2CC[C@@H]3[C@@H](CO)N(C)c4ccc(-c5cccc(F)c5)cc4[C@@H]32)c1 | – | inactive | –
CC(=O)c1ccc(N2CCN(S(=O)(=O)c3ccc4c(c3)OCO4)CC2)cc1 | – | inactive | –
CN1c2ccc(-c3cccc(F)c3)cc2[C@H]2[C@H](CCN2C(=O)Cc2ccccc2)[C@H]1CO | – | inactive | –
COc1ccccc1NC(=O)N1CC[C@@H]2[C@@H](CO)N(C)c3ccc(-c4cccc(F)c4)cc3[C@@H]21 | – | inactive | –
CCC(=O)N1CC[C@@H]2[C@@H](CO)N(C)c3ccc(-c4ccc(F)cc4)cc3[C@@H]21 | 2820 | – | AC50 [1]: 2820 nM
CN1c2ccc(-c3ccc(F)cc3)cc2[C@H]2[C@H](CCN2C(=O)Nc2cc(F)ccc2F)[C@H]1CO | – | inactive | –
CN(C)S(=O)(=O)c1ccc(N2CCN(C(=O)c3ccc4c(c3)OCO4)CC2)cc1 | – | inactive | –
CC(=O)c1ccc(N2CCN(C(=O)c3ccc4c(c3C)OCO4)CC2)cc1 | 53.7 | – | AC50 [2]: 53.7 nM
CNC(=O)c1ccc(N2CCN(C(=O)c3ccc4c(c3)OCO4)CC2)cc1 | – | inactive | AC50 [1]: > 20000 nM
CN1c2ccc(-c3cccc(F)c3)cc2[C@@H]2[C@@H](CCN2C(=O)c2ccc3c(c2)OCO3)[C@H]1CO | – | inactive | –
CC(=O)c1ccc(N2CCN(C(=O)c3ccc4c(c3)OCO4)[C@H](C)C2)cc1 | 55.3 | – | AC50 [1]: 55.3 nM
CC(=O)c1ccc(N2CC3CC2CN3C(=O)c2ccc3c(c2)OCO3)cc1 (stereo not given) | – | inactive | AC50 [2]: > 20000 nM
COc1ccc(NC(=O)N2CC[C@@H]3[C@@H](CO)N(C)c4ccc(-c5ccc(F)cc5)cc4[C@@H]32)cc1 | – | inactive | –
COc1ccccc1C(=O)N1CCN(c2ccc(C(C)=O)cc2)CC1 | – | inactive | AC50 [1]: > 20000 nM
CC(=O)c1ccc(N2CCN(C(=O)c3ccc4snnc4c3)CC2)cc1 | 1850 | – | AC50 [2]: 1850 nM
CC(=O)c1ccc(N2CCN(C(=O)c3cccc4c3OCO4)CC2)cc1 | 1580 | – | AC50 [2]: 1580 nM
CN1c2ccc(-c3cccc(F)c3)cc2[C@H]2[C@H](CCN2C(=O)c2ccc3c(c2)OCO3)[C@@H]1CO | – | inactive | –
CC(=O)c1ccc(N2CCN(C(=O)c3cc4c(cn3)OCO4)CC2)cc1 | – | inactive | AC50 [2]: > 20000 nM
CN1c2ccc(-c3ccc(F)cc3)cc2[C@H]2[C@H](CCN2C(=O)Nc2ccc(F)cc2)[C@H]1CO | – | inactive | –
CC(=O)c1ccc(N2CCN(C(=O)c3ccc4c(c3)OC(C)(C)O4)CC2)cc1 | – | inactive | –
COc1ccc(NC(=O)N2CC[C@@H]3[C@@H](CO)N(C)c4ccc(-c5cccc(F)c5)cc4[C@@H]32)cc1 | – | inactive | –
COc1ccccc1NC(=O)N1CC[C@@H]2[C@@H](CO)N(C)c3ccc(-c4ccc(F)cc4)cc3[C@@H]21 | – | inactive | –
CC(=O)c1ccc(N2CCN(C(=O)c3ccccc3Cl)CC2)cc1 | 8240 | – | AC50 [1]: 8240 nM
CC(=O)c1ccc(N2CCN(C(=O)c3cc4c(cc3C)OCO4)CC2)cc1 | 1090 | – | AC50 [2]: 1090 nM

Compound | AC50 [nM] | activity change, negative = inhibition (at 10 µM (top of the series)) | other results
CC(=O)c1ccc(NCCNC(=O)c2ccc3c(c2)OCO3)cc1 | – | inactive | –
CN1c2ccc(-c3cccc(F)c3)cc2[C@@H]2[C@@H](CCN2C(=O)c2ccc3c(c2)OCO3)[C@@H]1CO | – | – | activity change, negative = inhibition (at 5.6 µM (top of the series)): inactive
O=C(c1ccc2c(c1)OCO2)N1CCN(c2ccc(S(=O)(=O)C(F)(F)F)cc2)CC1 | – | inactive | –
CC(=O)c1ccc(N2CC3(CN(C(=O)c4ccc5c(c4)OCO5)C3)C2)cc1 | – | inactive | –
CCCNC(=O)N1CC[C@@H]2[C@@H](CO)N(C)c3ccc(-c4ccc(F)cc4)cc3[C@@H]21 | – | inactive | AC50 [1]: > 20000 nM
CC(=O)c1ccc(N2CCCN(C(=O)c3ccc4c(c3)OCO4)CC2)cc1 | 289 | – | AC50 [2]: 289 nM
CC(=O)c1ccc(N2CCN(C(=O)c3ccccc3F)CC2)cc1 | 6400 | – | AC50 [1]: 6400 nM
CC(=O)c1ccc(N2CCN(C(=O)c3ccc4c(c3)OC(F)(F)O4)CC2)cc1 | – | inactive | –
CN1c2ccc(-c3ccc(F)cc3)cc2[C@H]2[C@H](CCN2C(=O)Cc2ccccn2)[C@H]1CO | – | inactive | –
CC(=O)c1ccc(N2CCN(C(=O)Nc3ccc4c(c3)OCO4)CC2)cc1 | – | inactive | AC50 [2]: > 20000 nM
CC(=O)c1ccc(N2CCN(C(=O)c3ccc(Cl)c(Cl)c3)CC2)cc1 | 217 | – | AC50 [2]: 217 nM
O=C(c1ccc2c(c1)OCO2)N1CCN(c2ccc(OC(F)(F)F)cc2)CC1 | – | inactive | –
COc1cc(C(=O)N2CCN(c3ccc(C(C)=O)cc3)CC2)cc2c1OCO2 | 181 | – | AC50 [2]: 181 nM
CN1c2ccc(-c3cccc(F)c3)cc2[C@H]2[C@H](CCN2C(=O)Nc2ccccc2F)[C@H]1CO | – | inactive | –
CN1c2ccc(-c3ccc(F)cc3)cc2[C@H]2[C@H](CCN2C(=O)Cc2cccnc2)[C@H]1CO | – | – | activity change, negative = inhibition (at 9 µM (top of the series)): inactive
CNS(=O)(=O)c1ccc(N2CCN(C(=O)c3ccc4c(c3)OCO4)CC2)cc1 | – | inactive | –
CC(=O)c1ccc(N2CCN(C(=O)c3ccc4ocnc4c3)CC2)cc1 | 198 | – | AC50 [2]: 198 nM
O=C(c1ccc2c(c1)OCO2)N1CCN(c2ccc(C(F)(F)F)cc2)CC1 | – | inactive | AC50 [2]: > 20000 nM
COC(=O)CCCCCCC(=O)N1CC[C@@H]2[C@@H](CO)N(C)c3ccc(-c4cccc(F)c4)cc3[C@@H]21 | – | inactive | AC50 [1]: > 20000 nM
CC(C)NC(=O)N1CC[C@@H]2[C@@H](CO)N(C)c3ccc(-c4ccc(F)cc4)cc3[C@@H]21 | – | inactive | AC50 [1]: > 20000 nM
CN1c2ccc(-c3cccc(F)c3)cc2[C@H]2[C@H](CCN2C(=O)Cc2cccnc2)[C@H]1CO | – | inactive | AC50 [1]: > 20000 nM
CC(=O)c1ccc(N2CCN(C(=O)c3cc4c(cc3Cl)OCO4)CC2)cc1 | 6570 | – | AC50 [2]: 6570 nM
CCCCCCCC(=O)N1CC[C@@H]2[C@@H](CO)N(C)c3ccc(-c4cccc(F)c4)cc3[C@@H]21 | – | inactive | –
CC(=O)c1ccc(N2CCN(C(=O)c3ccc4c(c3)OCO4)CC2)cc1 | 49.7 | – | AC50 [2]: 30.1 nM; AC50 [1]: 69.2 nM
